Experimental data as given in patent US8357504B2, “Method and kit for the microbiological determination of vitamins in substance mixtures” (IFP Privates Institut fur Produktqualitat GmbH, priority 2004, dated 2013).
Several values for one entry are separate records, joined by “and”; a condition that tells them apart may be missing. Identical values can stand only once.

Experiments:
[1] = test system: Lactobacillus planatarum ATTC 8014; assay: Microbiological calcium pantothenate determination (growth turbidity); assay type: cell-based; details: for Average value (measurement at 630 nm): number 3; for Measurement at 630 nm: single well
Description: [table] The preparation of the microtitration plate and the determination of […] 800 μg/L, p-aminobenzoic acid 200.0 μg/L, biotin 1.0 μg/L, potassium dihydrogen phosphate 1.0 g/L, dipotassium hydrogen phosphate 1.0 g/L, magnesium sulfate 0.4 g/L, sodium chloride 20.0 mg/L, iron sulfate 20.0 mg/L, manganese sulfate 20.0 mg/L. The storage medium further contained 200 mM trehalose.

[2] = test system: Lactobacillus rhamnosus ATCC 7469; assay: Microbiological folic acid determination (growth turbidity, folic acid-casein medium); assay type: cell-based; details: for Average value (measurement at 630 nm): number 3; for Measurement at 630 nm: single well
Source text: The preparation of the microtitration plate and the determination of folic acid (pteroylglutaminic acid and other folic acid conjugates) was effected as in Example 1, except only that Lactobacillus rhamnosus ATCC 7469 was employed as test organism. There was employed as assay medium Difco™ folic acid-casein medium, containing activated carbon treated pancreas digested casein 10.0 g/L, dextrose 40.0 g/L, sodium acetate 40.0 g/L, potassium dihydrogen phosphate 1.0 g/L, dipotassium hydrogen phosphate 1.0 g/L, DL-tryptophane 0.2 g/L, L-asparagine 0.6 g/L, L-cystein hydrochloride 0.5 g/L, adenine sulfate 10.0 mg/L, guanine hydrochloride 10.0 mg/L, uracil 10.0 mg/L, xanthin 20.0 mg/L, Polysorbate-80 0.1 g/L, glutathion (reduced) 5.0 mg/L, magnesium sulfate 0.2 g/L, sodium chloride 20.0 mg/L, iron sulfate 20.0 mg/L, manganese sulfate 15.0 mg/L, riboflavin 1.0 mg/L, p-aminobenzoic acid 2.0 mg/L, pyridoxine hydrochloride 4.0 mg/L, thiamine hydrochloride 400.0 μg/L, calcium pantothenate 800.0 μg/L, nicotinic acid 800.0 μg/L, biotin 20.0 μg/L, 0.05% ascorbic acid. The storage medium contained 200 mM trehalose. The folic acid standard was dissolved in 100 mMol potassium phosphate buffer, pH 6.1, 0.1% ascorbic acid.

[3] = test system: Lactobacillus plantarum (ATCC 8014); details: cited from earlier work
[4] = test system: Lactobacillus plantarum ATCC 8014; assay: Microbiological biotin determination (growth turbidity, biotin assay medium); assay type: cell-based; details: for Average value (measurement at 630 nm): number 3; for Measurement at 630 nm: single well
Description: The preparation of the microtitration plate and determination of biotin was effected as in Example 1 with Lactobacillus plantarum ATCC 8014. There served as assay medium Difco™ biotin assay medium, containing casamino acids 12.0 g/L, dextrose 40.0 g/L, sodium acetate 20.0 g/L, L-cystein 0.2 g/L, DL-tryptophane 0.2 g/L, adenine sulfate 20.0 mg/L, guanine hydrochloride 20.0 mg/L, uracil 20.0 mg/L, thiamine hydrochloride 2.0 mg/L, riboflavin 2.0 mg/L, niacin 2.0 mg/L, calcium pantothenate 2.0 mg/L, pyridoxine hydrochloride 4.0 mg/L, p-aminobenzoic acid 0.2 mg/L, magnesium sulfate (water-free) 0.4 mg/L, sodium chloride 20.0 mg/L, iron sulfate 20.0 mg/L, manganese sulfate 20.0 mg/L, potassium dihydrogen phosphate 1.0 g/L, dipotassium hydrogen phosphate 1.0 g/L. The storage medium further contain 200 mM trehalose. The determined standard curve is show in FIG. 4.

[5] = test system: Saccharomyces cerevisae ATCC 9080; assay: Microbiological B6 pyridoxine determination (growth turbidity, pyridoxine-Y-medium); assay type: cell-based; details: for Average value (measurement at 630 nm): number 3; for Measurement at 630 nm: single well
Description: The preparation of the microtitration plate and the determination of B6-pyridoxine was effected as in Example 1, except only that as test organism Saccharomyces cerevisae ATCC 9080 was employed. As assay medium there was employed Difco™ pyridoxine-Y-medium, containing dextrose 40.0 g/L, L-asparagine 4.0 g/L, ammonium sulfate 4.0 g/L potassium dihydrogen phosphate 3.0 g/L, magnesium sulfate 1.0 g/L, calcium chloride 0.49 g/L, DL-methionine 40.0 mg/L, DL-tryptophane 40.0 mg/L, DL-isoleucin 40.0 mg/L, DL-valin 40.0 mg/L, L-histidine hydrochloride 20.0 mg/L, riboflavin 20.0 mg/L, biotin 8.0 mg/L, inositol 5.0 mg/L, iron sulfate 500 μg/L, thiamine hydrochloride 400.0 μg/L, calcium pantothenate 400.0 μg/L, nicotinic acid 400.0 μg/L, boric acid 200.0 μg/L, potassium iodide 200.0 μg/L, ammonium molybdate 40.0 μg/L, manganese sulfate 80.0 μg/L, copper sulfate 90.0 μg/L, zinc sulfate 80.0 μg/L. The storage medium further contained 200 mM trehalose.

[6] = test system: Lactobacillus delbrueckii subsp. Lactis (L. leichmanii) ATCC 7830; assay: Microbiological vitamin B12 determination (growth turbidity, B12 assay medium); assay type: cell-based; details: for Average value (measurement at 630 nm): number 3; for Measurement at 630 nm: single well
Source text: The preparation of the microtitration plate and the determination of vitamin B12 (cyanocobalamine, hydroxycobalamine) was effected as in Example 1, except only that Lactobacillus delbrueckii subsp. Lactis (L. leichmanii) ATCC 7830 was employed as test organism. As assay medium there served Difco™ B12 assay medium, containing casamino acids 15.0 g/L, dextrose 40.0 g/L, asparagine 0.2 g/L, sodium acetate 20.0 g/L, Ascorbic acid 4.0 g/L, L-cystein 4.0 g/L, DL-tryptophane 0.4 g/L, adenine sulfate 20.0 mg/L, guanine hydrochloride 20.0 mg/L, uracil 20.0 mg/L, xanthin 20.0 mg/L, polysorbate-80 2.0 g/L, magnesium sulfate (water-free) 0.4 mg/L, sodium chloride 20.0 mg/L, iron sulfate 20.0 mg/L, manganese sulfate 20.0 mg/L, riboflavin 1.0 mg/L, p-aminobenzoic acid 2.0 mg/L, pyridoxine hydrochloride 4.0 mg/L, thiamine hydrochloride 1.0 mg/L, calcium pantothenate 1.0 mg/L, niacin 2.0 mg/L, biotin 10.0 ug/L, pyridoxine hydrochloride 4.0 mg/L, pyridoxal hydrochloride 4.0 mg/L, pyridoxamine hydrochloride 800.0 ug/L, […], potassium dihydrogen phosphate 1.0 g/L, dipotassium hydrogen phosphate 1.0 g/L. The storage medium further contained 200 mM trehalose.

[7] = test system: Lactobacillus rhamnosus ATCC 7469; assay: Microbiological riboflavin determination (growth turbidity, riboflavin assay medium); assay type: cell-based; details: for Average value (measurement at 630 nm): number 3; for Measurement at 630 nm: single well
Source text: The preparation of the microtitration plate and the determination of riboflavin was effected as in Example 1, except only that Lactobacillus rhamnosus ATCC 7469 was employed as test organism. As assay medium there was employed Difco™ riboflavin assay medium, containing cas amino acids 10.0 g/L, dextrose 20.0 g/L, sodium acetate 15.0 g/L, dipotassium hydrogen phosphate 1.0 g/L, potassium dihydrogen phosphate 1.0 g/L, L-asparagine 0.6 g/L, L-cystine 0.2 g/L, DL-tryptophane 0.2 g/L, magnesium sulfate 0.4 g/L, adenine sulfate 20.0 mg/L, guanine hydrochloride 20.0 mg/L, uracil 20.0 mg/L, xanthin 20 mg/L, iron sulfate 20.0 mg/L, manganese sulfate 20.0 mg/L, sodium chloride 20.0 mg/L, pyridoxine hydrochloride 4.0 mg/L, pyridoxal hydrochloride 4.0 mg/L, p-aminobenzoic acid 2.0 mg/L, calcium pantothenate 800 μg/L, folic acid 800 μg/L, nicotinic acid 800 μg/L, thiamine hydrochloride 400 μg/L, biotin 1.0 μg/L. The storage medium additionally contained 200 mM trehalose.

[8] = Ca pantothenate standard 0.08 mg/100 g
[9] = Ca pantothenate standard 0.16 mg/100 g
[10] = Ca pantothenate standard 0.32 mg/100 g
[11] = Ca pantothenate standard 0.48 mg/100 g
[12] = Ca pantothenate standard 0.64 mg/100 g
[13] = folic acid standard 3.75 pg/150 μl (0.25 μg/100 g)
[14] = folic acid standard 7.5 pg/150 μl (0.5 μg/100 g)
[15] = folic acid standard 15 pg/150 μl (1 μg/100 g)
[16] = folic acid standard 22.5 pg/150 μl (1.5 μg/100 g)
[17] = folic acid standard 30 pg/150 μl (2 μg/100 g)
[18] = B6-pyridoxine standard 0.004 mg/100 g
[19] = B6-pyridoxine standard 0.008 mg/100 g
[20] = B6-pyridoxine standard 0.012 mg/100 g
[21] = B6-pyridoxine standard 0.016 mg/100 g
[22] = B6-pyridoxine standard 0.024 mg/100 g
[23] = vitamin B12 standard 0.1 μg/100 g
[24] = vitamin B12 standard 0.2 μg/100 g
[25] = vitamin B12 standard 0.3 μg/100 g
[26] = vitamin B12 standard 0.4 μg/100 g
[27] = vitamin B12 standard 0.8 μg/100 g
[28] = riboflavin standard 0.1 mg/100 g
[29] = riboflavin standard 0.2 mg/100 g
[30] = riboflavin standard 0.3 mg/100 g
[31] = riboflavin standard 0.4 mg/100 g
[32] = riboflavin standard 0.5 mg/100 g

Compound: calcium pantothenate [Ca pantothenate]
- Average value (measurement at 630 nm) [1, 8]: 0.076
- Measurement at 630 nm [1, 8]: 0.075 and 0.08 and 0.073
- Average value (measurement at 630 nm) [1, 9]: 0.179
- Measurement at 630 nm [1, 9]: 0.179 and 0.178 and 0.181
- Average value (measurement at 630 nm) [1, 10]: 0.395
- Measurement at 630 nm [1, 10]: 0.389 and 0.404 and 0.392
- Average value (measurement at 630 nm) [1, 11]: 0.491
- Measurement at 630 nm [1, 11]: 0.49 and 0.493 and 0.491
- Average value (measurement at 630 nm) [1, 12]: 0.59
- Measurement at 630 nm [1, 12]: 0.589 and 0.594 and 0.588

Compound: Nc1nc2ncc(CNc3ccc(C(=O)N[C@@H](CCC(=O)O)C(=O)O)cc3)nc2c(=O)[nH]1 [Folic acid, folic acid]
- Average value (measurement at 630 nm) [2, 13]: 0.264
- Measurement at 630 nm [2, 13]: 0.269 and 0.261
- Average value (measurement at 630 nm) [2, 14]: 0.545
- Measurement at 630 nm [2, 14]: 0.556 and 0.536 and 0.544
- Average value (measurement at 630 nm) [2, 15]: 0.793
- Measurement at 630 nm [2, 15]: 0.784 and 0.788 and 0.807
- Average value (measurement at 630 nm) [2, 16]: 0.999
- Measurement at 630 nm [2, 16]: 0.986 and 1.002 and 1.01
- Average value (measurement at 630 nm) [2, 17]: 1.094
- Measurement at 630 nm [2, 17]: 1.121 and 1.074 and 1.087

Compound: Niacytine
- Consumption by the test organism [3]: not consumed

Compound: O=C(O)CCCC[C@@H]1SC[C@@H]2NC(=O)N[C@@H]21 [Biotin, biotin]
- Average value (measurement at 630 nm) ([4]; biotin standard 0.003 μg/100 g): 0.204
- Measurement at 630 nm ([4]; biotin standard 0.003 μg/100 g): 0.205 and 0.204 and 0.203
- Average value (measurement at 630 nm) ([4]; biotin standard 0.009 μg/100 g): 0.499
- Measurement at 630 nm ([4]; biotin standard 0.009 μg/100 g): 0.506 and 0.5 and 0.491
- Average value (measurement at 630 nm) ([4]; biotin standard 0.015 μg/100 g): 0.685
- Measurement at 630 nm ([4]; biotin standard 0.015 μg/100 g): 0.676 and 0.693 and 0.686
- Average value (measurement at 630 nm) ([4]; biotin standard 0.021 μg/100 g): 0.823
- Measurement at 630 nm ([4]; biotin standard 0.021 μg/100 g): 0.826 and 0.822 and 0.82
- Average value (measurement at 630 nm) ([4]; biotin standard 0.027 μg/100 g): 0.985
- Measurement at 630 nm ([4]; biotin standard 0.027 μg/100 g): 0.986 and 0.988 and 0.982

Compound: Cc1ncc(CO)c(CO)c1O [B6-pyridoxine, pyridoxine]
- Average value (measurement at 630 nm) [5, 18]: 0.299
- Measurement at 630 nm [5, 18]: 0.298 and 0.297 and 0.301
- Average value (measurement at 630 nm) [5, 19]: 0.4
- Measurement at 630 nm [5, 19]: 0.407 and 0.398 and 0.394
- Average value (measurement at 630 nm) [5, 20]: 0.538
- Measurement at 630 nm [5, 20]: 0.522 and 0.541 and 0.552
- Average value (measurement at 630 nm) [5, 21]: 0.753
- Measurement at 630 nm [5, 21]: 0.73 and 0.766 and 0.762
- Average value (measurement at 630 nm) [5, 22]: 1.069
- Measurement at 630 nm [5, 22]: 1.049 and 1.088 and 1.07

Compound: cyanocobalamine [Vitamin B12]
- Average value (measurement at 630 nm) [6, 23]: 0.268
- Measurement at 630 nm [6, 23]: 0.264 and 0.271 and 0.269
- Average value (measurement at 630 nm) [6, 24]: 0.515
- Measurement at 630 nm [6, 24]: 0.51 and 0.503 and 0.531
- Average value (measurement at 630 nm) [6, 25]: 0.728
- Measurement at 630 nm [6, 25]: 0.727 and 0.721 and 0.736
- Average value (measurement at 630 nm) [6, 26]: 0.869
- Measurement at 630 nm [6, 26]: 0.88 and 0.863 and 0.865
- Average value (measurement at 630 nm) [6, 27]: 1.069
- Measurement at 630 nm [6, 27]: 1.086 and 1.073 and 1.048

Compound: Cc1cc2nc3c(=O)[nH]c(=O)nc-3n(C[C@H](O)[C@H](O)[C@H](O)CO)c2cc1C [B2 Riboflavin, riboflavin]
- Average value (measurement at 630 nm) [7, 28]: 0.204
- Measurement at 630 nm [7, 28]: 0.196 and 0.209 and 0.206
- Average value (measurement at 630 nm) [7, 29]: 0.398
- Measurement at 630 nm [7, 29]: 0.404 and 0.408 and 0.383
- Average value (measurement at 630 nm) [7, 30]: 0.623
- Measurement at 630 nm [7, 30]: 0.624 and 0.616 and 0.628
- Average value (measurement at 630 nm) [7, 31]: 0.759
- Measurement at 630 nm [7, 31]: 0.752 and 0.755 and 0.771
- Average value (measurement at 630 nm) [7, 32]: 0.88
- Measurement at 630 nm [7, 32]: 0.855 and 0.886 and 0.9
